Experimental data: article PMC9013686, “Inter-individual variation in chlorpyrifos toxicokinetics characterized by physiologically based kinetic (PBK) and Monte Carlo simulation comparing human liver microsome and Supersome™ cytochromes P450 (CYP)-specific kinetic data as model input” (Archives of Toxicology, 2022)

Key:
[1] = target: T1, CYP2B6 (Homo sapiens, UniProt P20813); settings: bioactivation of CPF, ref Foxenberg et al. [2007]; cited from earlier work
T1 sequence (P20813 1-491): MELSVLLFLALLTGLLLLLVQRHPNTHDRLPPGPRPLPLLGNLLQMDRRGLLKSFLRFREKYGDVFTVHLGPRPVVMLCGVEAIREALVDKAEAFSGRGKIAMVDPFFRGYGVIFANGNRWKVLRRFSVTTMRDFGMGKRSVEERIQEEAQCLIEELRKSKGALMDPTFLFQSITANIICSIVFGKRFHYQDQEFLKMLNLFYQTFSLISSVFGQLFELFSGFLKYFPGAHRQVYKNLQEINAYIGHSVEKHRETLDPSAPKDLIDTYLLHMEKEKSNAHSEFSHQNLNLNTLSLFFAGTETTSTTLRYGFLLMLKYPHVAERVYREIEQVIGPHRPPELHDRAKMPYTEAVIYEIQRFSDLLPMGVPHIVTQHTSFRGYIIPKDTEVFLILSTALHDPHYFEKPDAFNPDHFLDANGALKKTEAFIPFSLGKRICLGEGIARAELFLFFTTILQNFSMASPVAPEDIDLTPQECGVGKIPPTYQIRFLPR

[2] = target: T2, CYP1A2 (Homo sapiens, UniProt P05177); test: Supersome CYP1A2 kinetic incubations; format: in vitro ADME; parameters: purchased Corning (Amsterdam, The Netherlands); host or cells: baculovirus-transfected insect cells; settings: for Scaled Vmax(app): CYP1A2 scaled to whole liver by Eq. 3; for Vmax (app) / Km: Supersome CYP1A2; for Km: human, recombinant CYP1A2 Supersomes, pH 7.4, Km(app)
T2 sequence (P05177 2-516 limits assumed): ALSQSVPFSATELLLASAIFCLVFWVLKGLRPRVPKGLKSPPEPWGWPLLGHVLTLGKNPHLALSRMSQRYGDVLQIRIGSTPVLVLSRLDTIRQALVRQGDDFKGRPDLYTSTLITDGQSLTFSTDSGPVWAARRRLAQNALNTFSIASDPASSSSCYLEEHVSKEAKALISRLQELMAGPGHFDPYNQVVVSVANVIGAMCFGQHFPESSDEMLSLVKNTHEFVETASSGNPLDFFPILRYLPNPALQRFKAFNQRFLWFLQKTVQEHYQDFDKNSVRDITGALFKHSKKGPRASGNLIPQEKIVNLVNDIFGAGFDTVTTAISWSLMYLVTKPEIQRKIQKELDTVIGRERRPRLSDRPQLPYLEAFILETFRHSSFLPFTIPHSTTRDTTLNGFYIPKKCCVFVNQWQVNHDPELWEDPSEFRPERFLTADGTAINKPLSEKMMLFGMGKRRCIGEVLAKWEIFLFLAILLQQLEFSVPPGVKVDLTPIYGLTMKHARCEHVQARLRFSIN
Procedure: The final incubations were carried out in 50 mM Tris–HCl (pH 7.4) containing 5 mM MgCl2, 1 mM EDTA (as an A-esterase PON1 inhibitor) (Bizoń and Milnerowicz [2018]), 50 µM iso-OMPA (as a B-esterases inhibitor) (Lane et al. [2006]), Supersome™ isoform (at final concentration of 0.005 nmol CYP/ml for 1A2, 0.001 nmol CYP/ml for 2B6, 0.01 nmol CYP/ml for 2C19, and 0.01 nmol CYP/ml for 3A4) and CPF at different final concentrations (0.05, 0.1, 0.25, 0.5, 1, 5 and 10 µM for 1A2, 0.05, 0.1, 0.25, 0.5, 1, 5 10 and 25 µM for 2B6, 1, 2.5, 5, 10, 25 and 50 µM for 2C19, and 0.5, 1, 2.5, 5, 10, 25 and 50 µM for 3A4), which were added from 100 times concentrated stock solutions in ACN. After 1 min preincubation in a 37 °C water bath, 5 µl NADPH (final concentration 1 mM) was added to the incubation system. Control incubations were performed by replacing NADPH with the same amount of Tris–HCl (pH 7.4). The total volume of the incubation mixtures was 200 µl. The incubations lasted for 2 min at 37 °C and were terminated by addition of 50 µl ice cold ACN and subsquently put on ice. After that, samples were centrifuged at 16,000 g (4 ℃) for 5 min and supernatants of samples were separated into two equal portions for Ultra-Performance Liquid Chromatography-Photodiode Array (UPLC-PDA) and Liquid Chromatography Mass Spectrometry (LC–MS/MS) analysis, respectively.
To normalize for differences in intrinsic CYP activity between Supersome™ and pooled HLMs and enable scaling of the activities to the in vivo situation, CYP-specific ISEF values need to be established. […] The incubation method was similar as used for the CPF kinetic incubation assay described above, except that certain incubation conditions were replaced by the conditions listed in Table 1. The samples obtained were analyzed by UPLC-PDA for acetaminophen, 4-hydroxymephenytoin, and 6β-hydroxytestosterone formation catalyzed by 1A2, 2C19 and 3A4, or LC–MS/MS for (±)-hydroxybupropion formation catalyzed by 2B6.
As mentioned before, the in vitro apparent kinetic parameters (Vmax and Km) for pathway 1 and pathway 2 in the HLM-based approach, and pathway 3 in both approaches were all obtained directly from reported studies using pooled HLMs (Buratti et al. [2003]; Sams et al. [2004]; Zhao et al. [2019]). Therefore, no extra calculations were required to define these parameters. The kinetic parameters for the ISEF calculation, pathway 1 and 2 in the Supersome™-based approach, and pathway 4 in both approaches (25 individuals) were all obtained by fitting the experimental data to the Michaelis–Menten model using GraphPad (GraphPad Prism 5.0 software, San Diego, CA, USA). It should be noted that the kinetic parameters for pathway 4 used in the two approaches were calculated as mean of the kinetic parameters (Vmax and Km) obtained using 25 individual HP samples (with correction for total protein concentration of each plasma sample).
The in vivo Kmi values were assumed to be equal to the apparent Kmi(app) values (µM) obtained in the in vitro incubations, while the in vivo Vmaxi for each CYP isoform was derived from their corresponding apparent CYP isoform Vmaxi(app) (pmol/min/pmolCYP) using Eq. 3:3 Vmaxi=Vmaxiapp×CYPiabundance×ISEF×60×MPL×1000×VL/1,000,000,

Structure (SMILES): CCOP(=S)(OCC)Oc1nc(Cl)c(Cl)cc1Cl [CPF, Chlorpyrifos]
- Km [1]: 0.81 µM
- Scaled Vmax(app) ([2]; Pathway 1 (CPF to CPO)): 51.81 µmol/h
- Vmax (app) ([2]; Pathway 1 (CPF to CPO)): 3.96 pmol/min/pmolCYP
- Scaled Vmax(app) ([2]; Pathway 2 (CPF to TCPy)): 38.73 µmol/h
- Vmax (app) ([2]; Pathway 2 (CPF to TCPy)): 2.96 pmol/min/pmolCYP
- Km ([2]; Pathway 1 (bioactivation of CPF to CPO)): 0.61 µM
- Km ([2]; Pathway 2 (detoxification of CPF to TCPy)): 1.25 µM
